Calls of active or inactive are those of the source. No cut-off for these calls is given here.
What was measured:
[1] = tested on: MDA-MB-231; test: Potency index, ratio of FUdR GI50 to test compound GI50 for growth inhibition of human MDA-MB-231 cells; type: functional
[2] = Half life of compound in human MDA-MB-231 cell homogenate; type: ADME, tissue-based
[3] = tested on: MIA PaCa-2; test: Potency index, ratio of FUdR GI50 to test compound GI50 for growth inhibition of human MIA-PaCa-2 cells; type: functional
[4] = tested on: thymidine phosphorylase; test: Half life of compound in thymidine phosphorylase buffer at 300 uM by HPLC analysis; type: physicochemical
[5] = tested on: ZR-75-1; test: Potency index, ratio of FUdR GI50 to test compound GI50 for growth inhibition of human ZR-75-1 cells; type: functional
[6] = molecular target: T1, Sodium- and chloride-dependent neutral and basic amino acid transporter B(0+) (Homo sapiens, UniProt Q9UN76); test: Substrate activity at SLC6A14 (unknown origin) expressed in Xenopus laevis oocytes assessed as inhibition of glycine uptake incubated for 10 mins by HPLC/MS/MS analysis; type: cell-based, Oocyte
T1 sequence (Q9UN76 whole entry): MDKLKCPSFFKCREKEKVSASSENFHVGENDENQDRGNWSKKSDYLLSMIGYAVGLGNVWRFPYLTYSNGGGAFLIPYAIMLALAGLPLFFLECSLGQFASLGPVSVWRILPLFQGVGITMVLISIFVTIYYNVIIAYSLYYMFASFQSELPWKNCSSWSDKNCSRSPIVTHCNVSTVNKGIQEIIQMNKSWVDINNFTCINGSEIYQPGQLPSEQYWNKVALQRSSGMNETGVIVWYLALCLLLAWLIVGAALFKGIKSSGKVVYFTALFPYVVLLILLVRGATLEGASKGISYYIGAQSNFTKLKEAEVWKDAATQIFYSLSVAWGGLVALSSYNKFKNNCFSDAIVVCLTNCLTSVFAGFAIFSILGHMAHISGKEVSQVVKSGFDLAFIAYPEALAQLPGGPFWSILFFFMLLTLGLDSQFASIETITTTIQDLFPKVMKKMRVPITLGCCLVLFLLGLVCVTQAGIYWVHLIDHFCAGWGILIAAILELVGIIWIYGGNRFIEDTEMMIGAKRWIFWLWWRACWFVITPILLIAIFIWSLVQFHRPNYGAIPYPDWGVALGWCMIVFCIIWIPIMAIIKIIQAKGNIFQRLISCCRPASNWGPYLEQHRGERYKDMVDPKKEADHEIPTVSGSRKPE

[7] = molecular target: T2, Sodium- and chloride-dependent neutral and basic amino acid transporter B(0+) (Homo sapiens) (UniProt Q9UN76); test: Substrate activity at SLC6A14 (unknown origin) expressed in Xenopus laevis oocytes assessed as increase in ABT0+ mediated drug uptake at 1 mM in presence of Cl- ion by HPLC analysis; type: cell-based; details: Oocyte
T2 sequence (whole entry): T1 sequence (Q9UN76 whole entry)

[8] = molecular target: T2, Sodium- and chloride-dependent neutral and basic amino acid transporter B(0+) (Homo sapiens); test: Substrate activity at SLC6A14 (unknown origin) expressed in Xenopus laevis oocytes assessed as inhibition of drug uptake at 0.5 mM incubated for 10 mins in presence of glycine by HPLC analysis relative to control; type: cell-based; details: Oocyte
[9] = molecular target: T3, Solute carrier family 15 member 1 (Homo sapiens, UniProt P46059); test: Substrate activity at PEPT1 (unknown origin) expressed in MDCK cells assessed as inhibition of gly-sar uptake incubated for 10 mins by HPLC/MS/MS analysis; type: cell-based
T3 sequence (P46059 whole entry): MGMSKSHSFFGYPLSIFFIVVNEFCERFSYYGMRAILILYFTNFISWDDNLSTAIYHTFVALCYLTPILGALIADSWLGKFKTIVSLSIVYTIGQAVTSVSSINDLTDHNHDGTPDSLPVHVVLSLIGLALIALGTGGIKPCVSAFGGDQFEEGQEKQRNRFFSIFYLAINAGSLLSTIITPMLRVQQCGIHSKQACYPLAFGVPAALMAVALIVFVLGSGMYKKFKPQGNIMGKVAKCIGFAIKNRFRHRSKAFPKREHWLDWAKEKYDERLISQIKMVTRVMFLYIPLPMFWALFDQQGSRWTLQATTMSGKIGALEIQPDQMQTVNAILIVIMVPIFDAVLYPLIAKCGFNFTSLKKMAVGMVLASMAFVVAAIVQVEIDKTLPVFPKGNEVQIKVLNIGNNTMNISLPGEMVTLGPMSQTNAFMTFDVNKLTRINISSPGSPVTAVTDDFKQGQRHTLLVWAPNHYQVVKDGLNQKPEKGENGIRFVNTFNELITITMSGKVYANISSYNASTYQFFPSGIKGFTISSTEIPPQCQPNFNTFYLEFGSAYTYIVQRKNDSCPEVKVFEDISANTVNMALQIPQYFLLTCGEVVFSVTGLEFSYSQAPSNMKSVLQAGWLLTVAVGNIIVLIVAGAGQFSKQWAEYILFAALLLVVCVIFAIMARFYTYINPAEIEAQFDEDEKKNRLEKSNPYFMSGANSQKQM

[10] = Half life in rat plasma at 200 uM measured up to 120 mins by HPLC-MS/MS analysis; type: ADME, cell-free
[11] = molecular target: T2, Sodium- and chloride-dependent neutral and basic amino acid transporter B(0+) (Homo sapiens); test: Substrate activity at SLC6A14 (unknown origin) expressed in Xenopus laevis oocytes assessed as increase in ABT0+ mediated drug uptake at 1 mM in presence of Na+ ion by HPLC analysis; type: cell-based; details: Oocyte
[12] = molecular target: T3, Solute carrier family 15 member 1; test: Substrate activity at PEPT1 (unknown origin) expressed in MDCK cells assessed as PEPT1 mediated drug uptake at 0.5 mM incubated for 10 mins by HPLC analysis; type: ADME, cell-based; details: 500 µM
[13] = Selectivity ratio of substrate activity at SLC6A14 (unknown origin) expressed in Xenopus laevis oocytes assessed as ABT0+ mediated drug uptake to drug uptake in Xenopus laevis oocytes; parameters: species or system Oocyte
[14] = Drug uptake in MDCK cells incubated for 10 mins by HPLC analysis; type: ADME, cell-based, Canis lupus familiaris; details: dog, 500 µM, dose 0.5 mM
[15] = Selectivity ratio of substrate activity at PEPT1 (unknown origin) expressed in MDCK cells assessed as PEPT1 mediated drug uptake to drug uptake in MDCK cells
[16] = Half life of compound in PBS buffer at pH 7.4 at 200 uM by HPLC analysis; type: physicochemical
[17] = molecular target: T1, Sodium- and chloride-dependent neutral and basic amino acid transporter B(0+); test: Substrate activity at SLC6A14 (unknown origin) expressed in Xenopus laevis oocytes assessed as ABT0+ mediated drug uptake at 0.5 mM incubated for 10 mins by HPLC analysis; type: ADME, cell-based; details: oocyte, 500 µM
[18] = Half life of compound in human ZR-75-1 cell homogenate; type: ADME, tissue-based
[19] = Drug uptake in Xenopus laevis oocytes at 0.5 mM incubated for 10 mins by HPLC analysis; type: ADME, cell-based; details: oocyte, 500 µM
[20] = Half life of compound in human MIA PaCa-2 cell homogenate; type: ADME, tissue-based

Row | SMILES | RatioGI50 [1] | half-life [2] | RatioGI50 [3] | half-life at 300 µM [4] | RatioGI50 [5] | IC50 [6] | Activity [7] | inhibition [8] | IC50 [9] | half-life at 200 µM [10] | Activity [11] | Drug uptake [12] | Ratio [13] | Drug uptake [14] | Ratio [15] | half-life at 200 µM [16] | Drug uptake [17] | half-life [18] | Drug uptake [19] | half-life [20]
1 | N[C@@H](CCC(=O)OC[C@H]1O[C@@H](n2cc(F)c(=O)[nH]c2=O)C[C@@H]1O)C(=O)O | 7 | 17.3 min | 7 | 256 min | 7 | 1130 µM | Active | 50% | 11500 µM | 114 min | Active | < 0.04 nmol/mg/min | 6.23 | < 0.04 nmol/mg/min | 1 | 258 min | 2.12 nmol/mg/min | 12.3 min | 0.35 nmol/mg/min | 20.1 min
2 | N[C@@H](CCC(=O)O[C@H]1C[C@H](n2cc(F)c(=O)[nH]c2=O)O[C@@H]1CO)C(=O)O | 7 | 8.3 min | 7 | 289 min | 7 | 1840 µM | – | – | 13000 µM | 97.4 min | – | < 0.04 nmol/mg/min | 3.71 | < 0.04 nmol/mg/min | 1 | 183 min | 1.04 nmol/mg/min | 7.9 min | 0.28 nmol/mg/min | 10.2 min
3 | N[C@@H](CC(=O)OC[C@H]1O[C@@H](n2cc(F)c(=O)[nH]c2=O)C[C@@H]1OC(=O)C[C@H](N)C(=O)O)C(=O)O | 7 | 9.3 min | 7 | 301 min | 7 | 2980 µM | – | – | – | 56.1 min | – | < 0.04 nmol/mg/min | 3.29 | < 0.04 nmol/mg/min | 1 | 98.2 min | 1.12 nmol/mg/min | 16.2 min | 0.34 nmol/mg/min | 11.3 min
4 | CC(C)[C@H](N)C(=O)OC[C@H]1O[C@@H](n2cc(F)c(=O)[nH]c2=O)C[C@@H]1OC(=O)[C@@H](N)C(C)C | 7 | 10.1 min | 7 | 257 min | 7 | 2010 µM | – | – | 2240 µM | 37.8 min | – | 1.11 nmol/mg/min | 2.78 | 0.44 nmol/mg/min | 2.63 | 106 min | 1.03 nmol/mg/min | 6.7 min | 0.37 nmol/mg/min | 8.4 min
5 | CC(C)[C@H](N)C(=O)O[C@H]1C[C@H](n2cc(F)c(=O)[nH]c2=O)O[C@@H]1CO | 7 | 14.9 min | 7 | 368 min | 7 | 1630 µM | – | – | 1890 µM | 65.3 min | – | 1.23 nmol/mg/min | 4 | 0.43 nmol/mg/min | 2.86 | 187 min | 1.56 nmol/mg/min | 9.2 min | 0.39 nmol/mg/min | 12.2 min
6 | N[C@@H](CCC(=O)OC[C@H]1O[C@@H](n2cc(F)c(=O)[nH]c2=O)C[C@@H]1OC(=O)CC[C@H](N)C(=O)O)C(=O)O | 7 | 21.1 min | 7 | 235 min | 7 | 2650 µM | – | – | – | 67.9 min | – | < 0.04 nmol/mg/min | 2.44 | < 0.04 nmol/mg/min | 1 | 109 min | 0.78 nmol/mg/min | 14.3 min | 0.32 nmol/mg/min | 17.5 min
7 | N[C@@H](CC(=O)O[C@H]1C[C@H](n2cc(F)c(=O)[nH]c2=O)O[C@@H]1CO)C(=O)O | 7 | 19.3 min | 7 | 278 min | 7 | 1570 µM | – | – | 13900 µM | 124 min | – | < 0.04 nmol/mg/min | 5.25 | < 0.04 nmol/mg/min | 1 | 179 min | 1.89 nmol/mg/min | 24.2 min | 0.36 nmol/mg/min | 32.1 min
8 | CC(C)[C@H](N)C(=O)OC[C@H]1O[C@@H](n2cc(F)c(=O)[nH]c2=O)C[C@@H]1O | 7 | 15.3 min | 7 | 408 min | 7 | 980 µM | Active | 50% | 1120 µM | 78.5 min | Active | 1.78 nmol/mg/min | 7.55 | 0.41 nmol/mg/min | 4.34 | 203 min | 2.34 nmol/mg/min | 16.4 min | 0.31 nmol/mg/min | 11.3 min
